The text below walks through data of ChEMBL document CHEMBL5244281, “Tackling multidrug-resistant Staphylococcus aureus by natural products and their analogues acting as NorA efflux pump inhibitors” (Bioorg Med Chem, 2023).

Assay [1] has as its system Staphylococcus aureus. The assay is described as follows: Antibacterial activity against norfloxacin resistant Staphylococcus aureus 1199B overexpressing NorA assessed as bacterial growth inhibition incubated for 24 hrs by resazurin based broth microdilution method. The class given is functional. For orientation: The colour change of resazurin is a common sign of viable cells or microbes.

Assay [2] relates to Staphylococcus aureus. The assay is described as follows: Antibacterial activity against norfloxacin resistant Staphylococcus aureus 1199 assessed as bacterial growth inhibition incubated for 24 hrs by resazurin based broth microdilution method. The class given is functional.
The test system of assay [3] is Staphylococcus aureus. The assay can be described thus: Antibacterial activity against Staphylococcus aureus K2068 overexpressing mepA gene assessed as bacterial growth inhibition incubated for 24 hrs by resazurin based microdilution assay. Format: functional.
For assay [4], the system named is Staphylococcus aureus. The assay can be described thus: Antibacterial activity against wild type Staphylococcus aureus ATCC 25923 assessed as bacterial growth inhibition incubated for 24 hrs by resazurin based microdilution assay. The class given is functional.
Assay [5] deals with Staphylococcus aureus. The assay can be described thus: Antibacterial activity against Staphylococcus aureus IS-58 overexpressing TetK efflux protein assessed as bacterial growth inhibition incubated for 24 hrs by resazurin based microdilution assay. The class given is functional.
The test system of assay [6] is Staphylococcus aureus. The assay can be described thus: Antibacterial activity against Staphylococcus aureus RN4220 overexpressing […] efflux protein assessed as bacterial growth inhibition incubated for 24 hrs by resazurin based microdilution assay. Format: functional.
Assay [7] concerns Staphylococcus aureus. The assay is described as follows: Antibacterial activity against Staphylococcus aureus K4100 overexpressing qacC gene assessed as bacterial growth inhibition incubated for 24 hrs by resazurin based microdilution assay. The class given is functional.
Assay [8] deals with Staphylococcus aureus. The assay is described as follows: Antibacterial activity against Staphylococcus aureus 1199B overexpressing NorA efflux protein assessed as bacterial growth inhibition incubated for 24 hrs by resazurin based microdilution assay. The class given is functional.
Assay [9] concerns Staphylococcus aureus. The assay is described as follows: Antibacterial activity against Staphylococcus aureus K4414 overexpressing qacA/B gene assessed as bacterial growth inhibition incubated for 24 hrs by resazurin based microdilution assay. The class given is functional.
Assay [10] relates to Staphylococcus aureus. The assay can be described thus: Antibacterial activity against Staphylococcus aureus RN4220 assessed as bacterial growth inhibition incubated for 18 hrs by MTT assay. The class given is functional. On the technique in general: Tetrazolium assays rely on reduction of a dye to a coloured formazan, in cell work by metabolically active cells.
In assay [11] the test system is Staphylococcus aureus. The assay can be described thus: Antibacterial activity against Staphylococcus aureus EMRSA-15 assessed as bacterial growth inhibition incubated for 18 hrs by MTT assay. Format: functional.
Assay [12] deals with Staphylococcus aureus. The assay is described as follows: Antibacterial activity against Staphylococcus aureus 1199B overexpressing NorA assessed as bacterial growth inhibition incubated for 18 hrs by MTT assay. The class given is functional.
Assay [13] has as its system Staphylococcus aureus. The assay is described as follows: Antibacterial activity against tetracycline-resistant Staphylococcus aureus XU212 assessed as bacterial growth inhibition incubated for 18 hrs by MTT assay. The class given is functional.
Assay [14] concerns Staphylococcus aureus. The assay can be described thus: Antibacterial activity against Staphylococcus aureus ATCC25923 assessed as bacterial growth inhibition incubated for 18 hrs by MTT assay. The class given is functional.
For assay [15], the target named is T1, Quinolone resistance protein NorA (Staphylococcus aureus) (UniProt P0A0J7).
T1 sequence (whole entry): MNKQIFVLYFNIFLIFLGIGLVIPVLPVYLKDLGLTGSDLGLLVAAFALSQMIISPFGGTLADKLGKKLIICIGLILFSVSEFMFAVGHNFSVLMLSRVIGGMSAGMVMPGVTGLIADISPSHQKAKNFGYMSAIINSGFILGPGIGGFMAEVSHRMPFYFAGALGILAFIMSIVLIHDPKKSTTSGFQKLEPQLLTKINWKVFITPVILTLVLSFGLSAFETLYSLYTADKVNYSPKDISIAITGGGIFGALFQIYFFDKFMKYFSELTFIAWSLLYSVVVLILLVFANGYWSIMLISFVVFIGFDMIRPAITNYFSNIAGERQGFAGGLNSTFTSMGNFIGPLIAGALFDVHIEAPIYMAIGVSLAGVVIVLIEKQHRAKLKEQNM
The assay can be described thus: Modulation of norfloxacin-induced inhibition of NorA efflux pump in Staphylococcus aureus 1199B overexpressing NorA efflux pump assessed as reduction in norfloxacin MIC at 1/4 times of MIC by resazurin based assay.

The target of assay [16] is T1, Quinolone resistance protein NorA (Staphylococcus aureus). The assay is described as follows: Modulation of EtBr -induced inhibition of NorA efflux pump in Staphylococcus aureus 1199B overexpressing NorA efflux pump assessed as reduction in EtBr MIC at 1/4 times of MIC using EtBr as substrate by resazurin based assay.
The test system of assay [17] is Staphylococcus aureus. The assay can be described thus: Antibacterial activity against methicillin-resistant Staphylococcus aureus 1199B overexpressing NorA gene assessed as bacterial growth inhibition. Format: functional.
The subject of assay [18] is Staphylococcus aureus. The assay can be described thus: Antibacterial activity against norfloxacin resistant Staphylococcus aureus 1199B overexpressing NorA assessed as bacterial growth inhibition incubated for 24 hrs by resazurin based microdilution assay. The class given is functional.

≈ marks a conversion by molar mass, not a printed value. Where only a bound is given, the exact number is not on record here.

With `C/C=C/c1ccc(O)c(OC)c1`, the MIC in the assay on Staphylococcus aureus [1] came out at 32 µg/mL (≈ 195 µM); in the assay on Staphylococcus aureus [2], 40.3 µg/mL (≈ 245 µM).

For the compound `COc1ccc(/C=C/C(=O)c2ccc(O)cc2)cc1OC`, the MIC with Staphylococcus aureus [3], in the assay on Staphylococcus aureus [4], in the assay on Staphylococcus aureus [5], with Staphylococcus aureus [6], with Staphylococcus aureus [7] and in the assay with Staphylococcus aureus [8] was 100 µg/mL (≈ 352 µM) each time. The MIC with Staphylococcus aureus [9] is 100 µg/mL (≈ 352 µM).

On to `COc1ccc(/C=C/C(=O)c2ccccc2)cc1OC`, for which the MIC in the assay with Staphylococcus aureus [3], in the assay with Staphylococcus aureus [4], with Staphylococcus aureus [5], in the assay on Staphylococcus aureus [6], in the assay with Staphylococcus aureus [7] and with Staphylococcus aureus [8] was 100 µg/mL (≈ 373 µM) throughout. Besides, the MIC with Staphylococcus aureus [9] was found to be 100 µg/mL (≈ 373 µM).

In the case of `COC(=O)c1cc(/C=C/C(=O)c2cccc(O)c2)ccc1OC`, the MIC in the assay on Staphylococcus aureus [3], with Staphylococcus aureus [4], with Staphylococcus aureus [5], in the assay with Staphylococcus aureus [6], in the assay with Staphylococcus aureus [7] and in the assay on Staphylococcus aureus [8] was 100 µg/mL (≈ 320 µM) throughout. In addition, the MIC in the assay with Staphylococcus aureus [9] turned out to be 100 µg/mL (≈ 320 µM).

As for `COc1ccc(-c2cc(=O)c3ccc(O)cc3o2)cc1O`, the MIC in the assay with Staphylococcus aureus [10], in the assay with Staphylococcus aureus [11], in the assay on Staphylococcus aureus [12], in the assay with Staphylococcus aureus [13] and in the assay on Staphylococcus aureus [14] was 32 µg/mL (≈ 113 µM) in each case.

With `COc1ccc(-c2cc(=O)c3c(O)cc(O[C@@H]4O[C@H](CO[C@@H]5O[C@@H](C)[C@H](O)[C@@H](O)[C@H]5O)[C@@H](O)[C@H](O)[C@H]4O)cc3o2)cc1O`, the MIC in assay [15] was 32 µg/mL.

Take `COc1ccc([C@@H]2CC(=O)c3c(O)cc(O)cc3O2)cc1O`: the MIC in assay [15] was 8 µg/mL; in assay [16], 16 µg/mL.

Turning to `C[C@@H]1O[C@@H](Oc2c(-c3cc(O)c(O)c(O)c3)oc3cc(O)cc(O)c3c2=O)[C@H](O)[C@H](O)[C@H]1O`, in assay [15], the MIC amounted to 32 µg/mL.

In the case of `C[C@@H]1O[C@@H](Oc2c(-c3ccc(O)c(O)c3)oc3cc(O)cc(O)c3c2=O)[C@H](O)[C@H](O)[C@H]1O`, in assay [15], the MIC was found to be 64 µg/mL.

With `O=C(CCc1ccc(O)cc1)c1c(O)cc(O)cc1O`, the values for the MIC in assay [15] and in assay [16] were 32 µg/mL and 8 µg/mL, respectively.

For the compound `O=C1C[C@@H](c2ccc(O)cc2)Oc2cc(O)cc(O)c21`, the MIC worked out at 32 µg/mL in assay [15] and 16 µg/mL in [16].

As to `C=CCc1ccccc1` [ALLYLBENZENE], the MIC with Staphylococcus aureus [1] and in the assay on Staphylococcus aureus [2] was over 1020 µg/mL in each case.

Consider `CC1(C)C=Cc2c(cc3occ(-c4ccc(O)cc4)c(=O)c3c2O)O1` [ALPINUMISOFLAVONE], for which the MIC in the assay with Staphylococcus aureus [10], in the assay with Staphylococcus aureus [11], in the assay with Staphylococcus aureus [12], in the assay on Staphylococcus aureus [13] and in the assay with Staphylococcus aureus [14] was 32 µg/mL (≈ 95.1 µM) in each case.

For the compound `COc1ccc(-c2oc3cc(OC)c(OC)c(O)c3c(=O)c2OC)cc1OC` [ARTEMETIN], in the assay with Staphylococcus aureus [17], the MIC was 256 µg/mL (≈ 659 µM).

Consider `C=CCc1ccc(O)c(OC)c1` [EUGENOL], for which the MIC is 128 µg/mL (≈ 780 µM) in the assay with Staphylococcus aureus [1] and 102 µg/mL (≈ 619 µM) with Staphylococcus aureus [2].

In the case of `CC[n+]1c(-c2ccccc2)c2cc(N)ccc2c2ccc(N)cc21.[Br-]` [HOMIDIUM BROMIDE], the MIC in the assay with Staphylococcus aureus [18] is 32 µg/mL.

As to `C=CCc1cc(OC)c(O)c(OC)c1` [METHOXYEUGENOL], the results for the MIC in the assay on Staphylococcus aureus [1] and with Staphylococcus aureus [2] were 128 µg/mL (≈ 659 µM) and 32 µg/mL (≈ 165 µM), respectively.

Regarding `CCn1cc(C(=O)O)c(=O)c2cc(F)c(N3CCNCC3)cc21` [NORFLOXACIN], the MIC with Staphylococcus aureus [18] was found to be 64 µg/mL (≈ 200 µM); in the assay with Staphylococcus aureus [17] it was 32 µg/mL (≈ 100 µM).

In the case of `COc1cc(O)c2c(=O)c(OC)c(-c3ccc(O)c(OC)c3)oc2c1` [PACHYPODOL], the MIC with Staphylococcus aureus [17] is 256 µg/mL (≈ 743 µM).

Regarding `COc1ccc(-c2coc3cc(O)cc(O)c3c2=O)cc1O` [PRATENSEIN], the MIC in the assay on Staphylococcus aureus [10], with Staphylococcus aureus [11], with Staphylococcus aureus [12], in the assay with Staphylococcus aureus [13] and with Staphylococcus aureus [14] was 32 µg/mL (≈ 107 µM) in each case.
